Experimental data as given in ChEMBL document CHEMBL1201861, “Genomics of Drug Sensitity in Cancer screening data, Wellcome Trust Sanger Institute”.
pIC50: −log10 of the molar value.

Key:
Assay in all cases: cells
Type in all cases: functional, cell-based
Conditions in all cases: Homo sapiens
CPC-N = tested on: CPC-N;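 also: growth inhibition of CPC-N cells, with a cell viability assay as the readout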
Description: SANGER: Inhibition of human CPC-N cell growth in a cell viability assay.

Ca9-22 = tested on: Ca9-22;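 also: growth inhibition of Ca9-22 cells, read out with a cell viability assay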
Description: SANGER: Inhibition of human Ca9-22 cell growth in a cell viability assay.

CaR-1 = tested on: CaR-1;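 also: growth inhibition of human CaR-1 cancer cells, read out with a cell viability assay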
Description: SANGER: Inhibition of human CaR-1 cell growth in a cell viability assay.

Capan-2 = tested on: Capan-2;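 also: Capan-2 cell growth inhibition, read out with a viability assay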
Description: SANGER: Inhibition of human Capan-2 cell growth in a cell viability assay.

ChaGo-K-1 = tested on: ChaGo-K-1;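 also: growth inhibition of ChaGo-K-1 cells, read out with a cell viability assay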
Description: SANGER: Inhibition of human ChaGo-K-1 cell growth in a cell viability assay.

D-542MG = tested on: D-542MG
Description: SANGER: Inhibition of human D-542MG cell growth in a cell viability assay.

DBTRG-05MG = tested on: DBTRG-05MG;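 also: cell viability assay measuring growth inhibition of human DBTRG-05MG cells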
Description: SANGER: Inhibition of human DBTRG-05MG cell growth in a cell viability assay.

DOK = tested on: DOK;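 also: cell viability assay read-out, values reflect inhibition of cell growth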
Description: SANGER: Inhibition of human DOK cell growth in a cell viability assay.

EB2 = tested on: EB2;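 also: growth inhibition of EB2 cells, read out with a cell viability assay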
Description: SANGER: Inhibition of human EB2 cell growth in a cell viability assay.

EFO-21 = tested on: EFO-21;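 also: growth inhibition of EFO-21 cells measured with a viability assay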
Description: SANGER: Inhibition of human EFO-21 cell growth in a cell viability assay.

HCC2157 = tested on: HCC2157;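 also: growth inhibition of the cancer cell line, read out as cell viability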
Description: SANGER: Inhibition of human HCC2157 cell growth in a cell viability assay.

HCC 2998 = tested on: HCC 2998;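 also: growth inhibition of human HCC2998 cells, measured with a cell viability read-out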
Description: SANGER: Inhibition of human HCC2998 cell growth in a cell viability assay.

HCC70 = tested on: HCC70;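 also: cell viability assay measuring how strongly the compound suppresses proliferation of HCC70 cells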
Description: SANGER: Inhibition of human HCC70 cell growth in a cell viability assay.

HCT-116 = tested on: HCT-116
Description: SANGER: Inhibition of human HCT-116 cell growth in a cell viability assay.

HCT-15 = tested on: HCT-15;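 also: cell viability readout, IC50 reflecting suppression of HCT-15 cell growth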
Description: SANGER: Inhibition of human HCT-15 cell growth in a cell viability assay.

HMV-2 cell line = tested on: HMV-2 cell line;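 also: growth inhibition of HMV-II cells, read out with a cell viability assay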
Description: SANGER: Inhibition of human HMV-II cell growth in a cell viability assay.

Huh-7 = tested on: Huh-7;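 also: HuH-7 cell growth inhibition, read out with a cell viability assay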
Description: SANGER: Inhibition of human HuH-7 cell growth in a cell viability assay.

HuO-3N1 = tested on: HuO-3N1;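 also: cell viability readout used to measure how strongly compounds suppress proliferation of human HuO-3N1 cells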
Description: SANGER: Inhibition of human HuO-3N1 cell growth in a cell viability assay.

JEG-3 = tested on: JEG-3;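 also: growth inhibition of human JEG-3 cells, read out with a cell viability assay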
Description: SANGER: Inhibition of human JEG-3 cell growth in a cell viability assay.

KP-4 = tested on: KP-4;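 also: human KP-4 cells, with growth inhibition read out through a cell viability assay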
Description: SANGER: Inhibition of human KP-4 cell growth in a cell viability assay.

LCLC-97TM1 = tested on: LCLC-97TM1;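 also: cell viability assay measuring growth inhibition of human LCLC-97TM1 cells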
Description: SANGER: Inhibition of human LCLC-97TM1 cell growth in a cell viability assay.

MC-IXC = tested on: MC-IXC;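 also: growth inhibition of MC-IXC cells, read out with a cell viability assay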
Description: SANGER: Inhibition of human MC-IXC cell growth in a cell viability assay.

MDA-MB-453 = tested on: MDA-MB-453
Description: SANGER: Inhibition of human MDA-MB-453 cell growth in a cell viability assay.

ME-180 = tested on: ME-180;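 also: cell viability assay measuring growth inhibition of ME-180 cells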
Description: SANGER: Inhibition of human ME-180 cell growth in a cell viability assay.

MHH-ES-1 = tested on: MHH-ES-1;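 also: cell growth inhibition measured by a cell viability assay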
Description: SANGER: Inhibition of human MHH-ES-1 cell growth in a cell viability assay.

MKN-28 = tested on: MKN-28;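 also: cell viability assay read-out, IC50 reflects suppression of growth of human MKN-28 cells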
Description: SANGER: Inhibition of human MKN28 cell growth in a cell viability assay.

MRK-nu-1 = tested on: MRK-nu-1;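 also: cell viability assay measuring growth suppression of human MRK-nu-1 cells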
Description: SANGER: Inhibition of human MRK-nu-1 cell growth in a cell viability assay.

NCI-H1437 = tested on: NCI-H1437;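 also: growth inhibition of human NCI-H1437 cells, read out by a cell viability assay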
Description: SANGER: Inhibition of human NCI-H1437 cell growth in a cell viability assay.

NCI-H1522 = tested on: NCI-H1522;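 also: growth inhibition of NCI-H1522 cells, read out with a cell viability assay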
Description: SANGER: Inhibition of human NCI-H1522 cell growth in a cell viability assay.

NCI-H1563 = tested on: NCI-H1563;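 also: growth inhibition of human NCI-H1563 cells, read out with a cell viability assay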
Description: SANGER: Inhibition of human NCI-H1563 cell growth in a cell viability assay.

NCI-H1651 = tested on: NCI-H1651;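 also: Read-out is a cell viability assay, with IC50 expressing inhibition of NCI-H1651 cell growth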
Description: SANGER: Inhibition of human NCI-H1651 cell growth in a cell viability assay.

NCI-H1882 = tested on: NCI-H1882;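 also: growth inhibition of the cell line, determined with a viability assay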
Description: SANGER: Inhibition of human NCI-H1882 cell growth in a cell viability assay.

NCI-H2122 = tested on: NCI-H2122;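 also: growth inhibition of the cells, read out with a cell viability assay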
Description: SANGER: Inhibition of human NCI-H2122 cell growth in a cell viability assay.

NCI-H2196 = tested on: NCI-H2196;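 also: cell viability assay used as the readout of growth inhibition in NCI-H2196 cells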
Description: SANGER: Inhibition of human NCI-H2196 cell growth in a cell viability assay.

NCI-H2347 = tested on: NCI-H2347;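 also: growth inhibition of the cell line, read out with a cell viability assay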
Description: SANGER: Inhibition of human NCI-H2347 cell growth in a cell viability assay.

NCI-H28 = tested on: NCI-H28;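 also: growth inhibition of human NCI-H28 cells, read out as cell viability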
Description: SANGER: Inhibition of human NCI-H28 cell growth in a cell viability assay.

NCI-H522 = tested on: NCI-H522;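 also: cell viability assay measuring growth inhibition of human NCI-H522 cells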
Description: SANGER: Inhibition of human NCI-H522 cell growth in a cell viability assay.

NCI-H524 = tested on: NCI-H524;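 also: growth inhibition of human NCI-H524 cells, read out through a cell viability assay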
Description: SANGER: Inhibition of human NCI-H524 cell growth in a cell viability assay.

NCI-H650 = tested on: NCI-H650;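 also: growth inhibition of NCI-H650 cells, read out by a viability assay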
Description: SANGER: Inhibition of human NCI-H650 cell growth in a cell viability assay.

NCI-H810 = tested on: NCI-H810;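 also: IC50 reflects inhibition of cancer cell line growth, read out with a cell viability assay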
Description: SANGER: Inhibition of human NCI-H810 cell growth in a cell viability assay.

NCI-H889 = tested on: NCI-H889;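 also: cell growth inhibition of the cell line, read out with a viability assay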
Description: SANGER: Inhibition of human NCI-H889 cell growth in a cell viability assay.

OAW-28 = tested on: OAW-28;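 also: growth inhibition of OAW-28 cells, read out with a cell viability assay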
Description: SANGER: Inhibition of human OAW-28 cell growth in a cell viability assay.

OAW-42 = tested on: OAW-42;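 also: growth inhibition of OAW-42 cells, read out with a cell viability assay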
Description: SANGER: Inhibition of human OAW-42 cell growth in a cell viability assay.

PC-3 = tested on: PC-3;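 also: cell viability assay measuring growth inhibition of PC-3 cells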
Description: SANGER: Inhibition of human PC-3 cell growth in a cell viability assay.

REH = tested on: REH;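 also: growth inhibition of REH cells determined with a cell viability read-out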
Description: SANGER: Inhibition of human REH cell growth in a cell viability assay.

RO82-W-1 = tested on: RO82-W-1;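 also: growth inhibition of human RO82-W-1 cells, measured with a cell viability assay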
Description: SANGER: Inhibition of human RO82-W-1 cell growth in a cell viability assay.

SBC-5 = tested on: SBC-5;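 also: cell viability assay read-out, IC50 is the concentration that inhibits growth of the cells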
Description: SANGER: Inhibition of human SBC-5 cell growth in a cell viability assay.

SK-MEL-24 = tested on: SK-MEL-24;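 also: growth inhibition read out by a cell viability assay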
Description: SANGER: Inhibition of human SK-MEL-24 cell growth in a cell viability assay.

SK-N-AS = tested on: SK-N-AS;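 also: growth inhibition of human SK-N-AS cells, measured with a cell viability assay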
Description: SANGER: Inhibition of human SK-N-AS cell growth in a cell viability assay.

SNU-C1 = tested on: SNU-C1;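 also: growth inhibition of SNU-C1 human cells, read out by a cell viability assay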
Description: SANGER: Inhibition of human SNU-C1 cell growth in a cell viability assay.

SW1573 = tested on: SW1573;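 also: growth inhibition of SW1573 cells, read out with a cell viability assay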
Description: SANGER: Inhibition of human SW1573 cell growth in a cell viability assay.

SW1783 = tested on: SW1783;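 also: cell growth inhibition measured with a viability assay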
Description: SANGER: Inhibition of human SW1783 cell growth in a cell viability assay.

SW948 = tested on: SW948
Description: SANGER: Inhibition of human SW948 cell growth in a cell viability assay.

SiHa = tested on: SiHa
Description: SANGER: Inhibition of human SiHa cell growth in a cell viability assay.

T47D = tested on: T47D
Description: SANGER: Inhibition of human T47D cell growth in a cell viability assay.

786-0 = tested on: 786-0
Description: SANGER: Inhibition of human 786-0 cell growth in a cell viability assay.

ACHN = tested on: ACHN
Description: SANGER: Inhibition of human ACHN cell growth in a cell viability assay.

CAL-54 = tested on: CAL-54
Description: SANGER: Inhibition of human CAL-54 cell growth in a cell viability assay.

CAL-85-1 = tested on: CAL-85-1
Description: SANGER: Inhibition of human CAL-85-1 cell growth in a cell viability assay.

TE-15 = tested on: TE-15
Description: SANGER: Inhibition of human TE-15 cell growth in a cell viability assay.

UACC-62 = tested on: UACC-62
Description: SANGER: Inhibition of human UACC-62 cell growth in a cell viability assay.

UACC-812 = tested on: UACC-812
Description: SANGER: Inhibition of human UACC-812 cell growth in a cell viability assay.

YT = tested on: YT
Description: SANGER: Inhibition of human YT cell growth in a cell viability assay.

COLO-679 = tested on: COLO-679
Description: SANGER: Inhibition of human COLO-679 cell growth in a cell viability assay.

COLO-680N = tested on: COLO-680N
Description: SANGER: Inhibition of human COLO-680N cell growth in a cell viability assay.

**Q.** What does the source list for C/C=C(/C)C(=O)O[C@H]1C(C)=C2[C@H]([C@@H]1OC(=O)CCCCCCC)[C@@](C)(OC(C)=O)C[C@H](OC(=O)CCC)[C@@]1(O)[C@H]2OC(=O)[C@@]1(C)O [THAPSIGARGIN]?
**A.** pIC50 (CPC-N): 8.00; pIC50 (Ca9-22): 7.64; pIC50 (CaR-1): 8.06; pIC50 (Capan-2): > 8.70; pIC50 (ChaGo-K-1): 8.48; pIC50 (D-542MG): 8.16; pIC50 (DBTRG-05MG): 7.93; pIC50 (DOK): < 6.29; pIC50 (EB2): 7.98; pIC50 (EFO-21): 7.79; pIC50 (HCC2157): 8.46; pIC50 (HCC 2998): > 8.70; pIC50 (HCC70): 7.65; pIC50 (HCT-116): 9.03; pIC50 (HCT-15): 6.81; pIC50 (HMV-2 cell line): 8.16; pIC50 (Huh-7): > 8.70; pIC50 (HuO-3N1): 7.36; pIC50 (JEG-3): 8.01; pIC50 (KP-4): 8.58; pIC50 (LCLC-97TM1): > 8.70; pIC50 (MC-IXC): 7.42; pIC50 (MDA-MB-453): < 6.29; pIC50 (ME-180): < 6.29; pIC50 (MHH-ES-1): 8.38; pIC50 (MKN-28): 8.01; pIC50 (MRK-nu-1): 7.63; pIC50 (NCI-H1437): 8.61; pIC50 (NCI-H1522): < 6.29; pIC50 (NCI-H1563): 6.70; pIC50 (NCI-H1651): 7.38; pIC50 (NCI-H1882): < 6.29; pIC50 (NCI-H2122): 8.35; pIC50 (NCI-H2196): < 6.29; pIC50 (NCI-H2347): 7.99; pIC50 (NCI-H28): < 6.29; pIC50 (NCI-H522): 8.27; pIC50 (NCI-H524): 7.15; pIC50 (NCI-H650): 6.53; pIC50 (NCI-H810): 8.15; pIC50 (NCI-H889): < 6.29; pIC50 (OAW-28): 7.30; pIC50 (OAW-42): 7.57; pIC50 (PC-3): 8.10; pIC50 (REH): 8.19; pIC50 (RO82-W-1): < 6.29; pIC50 (SBC-5): 8.09; pIC50 (SK-MEL-24): < 6.29; pIC50 (SK-N-AS): 7.31; pIC50 (SNU-C1): < 6.29; pIC50 (SW1573): 7.51; pIC50 (SW1783): 8.03; pIC50 (SW948): < 6.29; pIC50 (SiHa): < 6.29; pIC50 (T47D): < 6.29; pIC50 (786-0): > 8.70; pIC50 (ACHN): 7.54; pIC50 (CAL-54): < 6.29; pIC50 (CAL-85-1): 8.22; pIC50 (TE-15): 8.31; pIC50 (UACC-62): 7.18; pIC50 (UACC-812): < 6.29; pIC50 (YT): 7.88; pIC50 (COLO-679): > 8.70; pIC50 (COLO-680N): 7.74
